Legend:
[1] = tested on: Propionibacterium acnes ATCC 6919; test: Incubation of pro-perfume glucuronide mixture with skin bacteria; remaining conjugate by LC-MS; type: cell-based; conditions: After 5 days; for Glucuronide-conjugates remaining after incubation with Propionibacterium acnes (in percentage), Average: average of incubations 1-3; for Glucuronide-conjugates remaining after incubation with Propionibacterium acnes (in percentage): blank fixed as 100%
Protocol: (§1) The liberation of perfuming alcohols from the present invention's compounds of formula (I) was tested in vitro during incubation with defined skin bacteria strains.
(§2) c) Bacterial solutions: Two underarm bacterial isolates, Propionibacterium acnes ATCC 6919 and Staphylococcus warneri DSM 20316 (identified by 16S rDNA sequencing by Deutsche Sammlung von Mikroorganismen and ZellKulturen DSMZ, Germany), were cultivated on SCH agar at 37° C. during 72 h in anaerobic conditions and on TSA at 37° C. during 24 h, respectively.
One isolated colony of P. acnes from the pure primary culture on SCH agar was inoculated on a new SCH agar and incubated at 37° C., 72 h in anaerobic conditions. After incubation, the whole culture was dissociated by shaking in 20 ml of NaCl 0.9% then centrifuged 10 min at 5000 rpm at room temperature. The pellet was washed in NaCl 0.9% and concentrated two times in NaCl 0.9%.
(§3) A pro-perfume glucuronides mixture containing menthol glucuronide (6 mg/kg), phenethylol β-glucuronide (10.75 mg/kg) and raspberry ketone β-glucuronide (13 mg/kg) in water was incubated with either: • 500 μL of the previously described bacterial solution • 10 μL of commercial enzymes β-glucuronidase/arylsulfatase from Helix pomatia (RocheDiagnostic, Indianapolis, USA) and 490 μL of NaCl 0.9% as a positive control • 500 μl of NaCl 0.9% as a negative controlfor the incubation with bacteria.
(§4) Each solution was prepared in duplicate (in glass vials).
(§5) The vials were placed in a heating block at 37° C. under gentle stirring from 1 to 7 days depending on the bacteria solutions. At the end of the incubation time, vials were cooled down to room temperature, 150 μL was mixed with 50 μL of LC-MS solvent B, filtered through acrodisc and 1 μL was injected on LC-MS (peak areas considered were measured in SIM mode according to their respective molecular weights). Comparisons were made between glucuronides (HESI−) or glucosides (HESI+) areas in incubated solutions and glucuronides (HESI−) or glucosides (HESI+) areas in the blanks (fixed as 100%).

[2] = tested on: Staphylococcus warneri DSM 20316; test: Incubation of pro-perfume conjugates with skin bacteria; remaining conjugate by LC-MS; type: cell-based
Protocol: as §1, §2
Similarly, one colony of S. warneri from the pure primary culture on TSA was inoculated on a new TSA and incubated for 24 h at 37° C. After incubation, the whole culture was dissociated by shaking in 20 ml of NaCl 0.9% then centrifuged 15 min at 5000 rpm, 4° C. The pellet was washed in NaCl 0.9% and concentrated two times in NaCl 0.9%.
as §3, §4, §5

[3] = Table 2, After 1 day, incubation 1
[4] = Table 2, After 1 day, incubation 2
[5] = Table 3, After 1 day, incubation 1
[6] = Table 3, After 1 day, incubation 2
[7] = Table 3, After 5 day, incubation 1
[8] = Table 3, After 5 day, incubation 2

Structure (SMILES)	Glucuronide-conjugates remaining after incubation with Propionibacterium acnes (in percentage), Average [1] [%]	Glucuronide-conjugates remaining after incubation with Propionibacterium acnes (in percentage) ([1]; incubation 1) [%]	Glucuronide-conjugates remaining after incubation with Propionibacterium acnes (in percentage) ([1]; incubation 2) [%]	Glucuronide-conjugates remaining after incubation with Propionibacterium acnes (in percentage) ([1]; incubation 3) [%]	Glucuronide-conjugates remaining after incubation with S. warneri (in percentage), Average ([2]; Table 2, After 1 day) [%]	Glucuronide-conjugates remaining after incubation with S. warneri (in percentage) [2, 3] [%]	Glucuronide-conjugates remaining after incubation with S. warneri (in percentage) [2, 4] [%]	Glucuronide-conjugates remaining after incubation with S. warneri (in percentage), Average ([2]; Table 3, After 1 day) [%]	Glucuronide-conjugates remaining after incubation with S. warneri (in percentage) [2, 5] [%]	Glucuronide-conjugates remaining after incubation with S. warneri (in percentage) [2, 6] [%]	Glucuronide-conjugates remaining after incubation with S. warneri (in percentage), Average ([2]; Table 3, After 5 day) [%]	Glucuronide-conjugates remaining after incubation with S. warneri (in percentage) [2, 7] [%]	Glucuronide-conjugates remaining after incubation with S. warneri (in percentage) [2, 8] [%]
CC1CCC(C(C)C)C(OC2O[C@H](C(=O)O)[C@@H](O)[C@H](O)[C@H]2O)C1 (some centres unmarked) [p-menthan-3-ol, glucopyranosiduronic acid 1-menthyl]	7	5	9	7	0	1	0						
CC(=O)CCc1ccc(O[C@@H]2O[C@H](C(=O)O)[C@@H](O)[C@H](O)[C@H]2O)cc1 [(4-hydroxyphenyl)-2-butanone-β-D-glucopyranosiduronic acid]	58	61	58	57	0	0	0						
COc1cc(C=O)ccc1O[C@@H]1O[C@H](C(=O)O)[C@@H](O)[C@H](O)[C@H]1O [β-D-glucopyranosiduronic acid 4-formyl-2-methoxyphenyl]								100	84	96	0	0	0
C=CCc1ccc(O[C@@H]2O[C@H](C(=O)O)[C@@H](O)[C@H](O)[C@H]2O)c(OC)c1 [β-D-glucopyranosiduronic acid 2-methoxy-4-(2-propen-1-yl)phenyl]								100	130	120	0	0	0
CC1CCC(C(C)C)C(O)C1 (centres unmarked) [menthol]								74	72	77	34	36	31

Reference: patent publication US10590365B2, “Compounds for a controlled release of active molecules” (FIRMENICH SA, priority 2013, dated 2020)
